Source: patent US12275731B2, “Azaindole inhibitors of wild-type and mutant forms of LRRK2” (DANA-FARBER CANCER INSTITUTE, INC., priority 2018, dated 2025)

Experiments:
Test in all cases: KinomeScan profiling
Assay type in all cases: binding
[1] = target: NIM1 (Homo sapiens, UniProt Q8IY84); settings: NIM1, 1 μM; read-out: % control
Method in brief: (§1)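 Compounds were screened at 1 μM in DMSO across a 468-kinase KinomeScan panel. Binding was expressed as % control, scaled between a positive control (0%) and DMSO (100%) using luminescence signal. A value under 35% counted as active.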

[2] = target: FES (Homo sapiens, UniProt P07332); settings: read-out: % control
Method in brief: as §1

[3] = target: T1, MYO3B (Homo sapiens, UniProt Q8WXR4); settings: read-out: % control
T1 sequence (Q8WXR4 1-1341): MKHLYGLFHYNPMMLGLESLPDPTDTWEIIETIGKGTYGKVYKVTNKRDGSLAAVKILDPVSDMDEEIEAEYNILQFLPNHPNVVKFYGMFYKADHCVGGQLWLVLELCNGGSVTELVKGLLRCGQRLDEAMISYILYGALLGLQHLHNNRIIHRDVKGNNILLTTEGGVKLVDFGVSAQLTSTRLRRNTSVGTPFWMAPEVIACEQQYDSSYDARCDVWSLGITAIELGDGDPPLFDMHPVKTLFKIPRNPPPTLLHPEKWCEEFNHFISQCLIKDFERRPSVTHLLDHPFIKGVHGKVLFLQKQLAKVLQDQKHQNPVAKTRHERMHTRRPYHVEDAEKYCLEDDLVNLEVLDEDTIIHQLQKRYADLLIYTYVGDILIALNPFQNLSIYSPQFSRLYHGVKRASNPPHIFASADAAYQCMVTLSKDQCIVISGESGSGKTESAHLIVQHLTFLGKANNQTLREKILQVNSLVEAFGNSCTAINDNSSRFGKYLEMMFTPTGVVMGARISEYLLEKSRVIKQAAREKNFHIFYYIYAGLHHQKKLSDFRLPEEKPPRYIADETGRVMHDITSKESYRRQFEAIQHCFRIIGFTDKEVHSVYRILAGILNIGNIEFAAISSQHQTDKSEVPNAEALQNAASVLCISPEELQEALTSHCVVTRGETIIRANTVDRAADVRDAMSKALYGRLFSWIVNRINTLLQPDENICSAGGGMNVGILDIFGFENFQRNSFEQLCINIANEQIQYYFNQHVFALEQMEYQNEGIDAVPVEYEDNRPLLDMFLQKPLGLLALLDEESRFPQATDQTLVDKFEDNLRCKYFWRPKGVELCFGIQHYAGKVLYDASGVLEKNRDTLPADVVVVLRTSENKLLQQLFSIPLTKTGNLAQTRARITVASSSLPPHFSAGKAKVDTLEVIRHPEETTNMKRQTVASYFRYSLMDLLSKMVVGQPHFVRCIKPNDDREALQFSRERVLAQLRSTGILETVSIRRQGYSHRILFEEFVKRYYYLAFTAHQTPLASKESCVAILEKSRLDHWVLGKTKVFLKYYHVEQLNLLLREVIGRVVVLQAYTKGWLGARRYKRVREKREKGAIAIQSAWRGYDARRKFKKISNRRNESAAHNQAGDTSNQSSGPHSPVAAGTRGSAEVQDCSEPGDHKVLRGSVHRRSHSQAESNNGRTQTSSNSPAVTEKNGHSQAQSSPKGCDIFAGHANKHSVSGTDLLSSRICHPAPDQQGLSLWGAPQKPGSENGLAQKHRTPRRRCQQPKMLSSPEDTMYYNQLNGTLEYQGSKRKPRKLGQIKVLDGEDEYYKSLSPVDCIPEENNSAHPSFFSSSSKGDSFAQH
Method in brief: as §1

[4] = target: TNIK (Homo sapiens, UniProt Q9UKE5); settings: read-out: % control
Method in brief: as §1

[5] = target: CSK (Homo sapiens, UniProt P41240); settings: read-out: % control
Method in brief: as §1

[6] = target: T2, ICK (Homo sapiens, UniProt Q9UPZ9); settings: read-out: % control
T2 sequence (Q9UPZ9 1-632): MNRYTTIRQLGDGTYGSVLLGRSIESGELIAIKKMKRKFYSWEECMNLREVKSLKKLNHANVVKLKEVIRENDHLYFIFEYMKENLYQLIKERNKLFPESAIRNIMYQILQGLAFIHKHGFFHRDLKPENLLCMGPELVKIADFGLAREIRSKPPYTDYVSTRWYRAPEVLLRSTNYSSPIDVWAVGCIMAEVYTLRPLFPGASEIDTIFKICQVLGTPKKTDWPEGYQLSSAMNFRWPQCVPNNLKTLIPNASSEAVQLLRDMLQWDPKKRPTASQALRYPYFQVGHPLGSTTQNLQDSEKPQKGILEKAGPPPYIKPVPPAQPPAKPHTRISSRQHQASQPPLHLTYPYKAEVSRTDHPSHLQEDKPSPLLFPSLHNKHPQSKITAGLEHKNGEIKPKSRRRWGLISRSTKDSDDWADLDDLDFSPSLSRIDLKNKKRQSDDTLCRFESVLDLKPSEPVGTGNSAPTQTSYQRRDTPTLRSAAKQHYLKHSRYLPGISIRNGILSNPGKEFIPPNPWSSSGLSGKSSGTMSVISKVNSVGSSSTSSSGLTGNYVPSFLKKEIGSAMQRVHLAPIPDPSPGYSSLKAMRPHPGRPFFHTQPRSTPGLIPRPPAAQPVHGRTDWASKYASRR
Method in brief: as §1

TNIK, sequence (Q9UKE5 whole entry): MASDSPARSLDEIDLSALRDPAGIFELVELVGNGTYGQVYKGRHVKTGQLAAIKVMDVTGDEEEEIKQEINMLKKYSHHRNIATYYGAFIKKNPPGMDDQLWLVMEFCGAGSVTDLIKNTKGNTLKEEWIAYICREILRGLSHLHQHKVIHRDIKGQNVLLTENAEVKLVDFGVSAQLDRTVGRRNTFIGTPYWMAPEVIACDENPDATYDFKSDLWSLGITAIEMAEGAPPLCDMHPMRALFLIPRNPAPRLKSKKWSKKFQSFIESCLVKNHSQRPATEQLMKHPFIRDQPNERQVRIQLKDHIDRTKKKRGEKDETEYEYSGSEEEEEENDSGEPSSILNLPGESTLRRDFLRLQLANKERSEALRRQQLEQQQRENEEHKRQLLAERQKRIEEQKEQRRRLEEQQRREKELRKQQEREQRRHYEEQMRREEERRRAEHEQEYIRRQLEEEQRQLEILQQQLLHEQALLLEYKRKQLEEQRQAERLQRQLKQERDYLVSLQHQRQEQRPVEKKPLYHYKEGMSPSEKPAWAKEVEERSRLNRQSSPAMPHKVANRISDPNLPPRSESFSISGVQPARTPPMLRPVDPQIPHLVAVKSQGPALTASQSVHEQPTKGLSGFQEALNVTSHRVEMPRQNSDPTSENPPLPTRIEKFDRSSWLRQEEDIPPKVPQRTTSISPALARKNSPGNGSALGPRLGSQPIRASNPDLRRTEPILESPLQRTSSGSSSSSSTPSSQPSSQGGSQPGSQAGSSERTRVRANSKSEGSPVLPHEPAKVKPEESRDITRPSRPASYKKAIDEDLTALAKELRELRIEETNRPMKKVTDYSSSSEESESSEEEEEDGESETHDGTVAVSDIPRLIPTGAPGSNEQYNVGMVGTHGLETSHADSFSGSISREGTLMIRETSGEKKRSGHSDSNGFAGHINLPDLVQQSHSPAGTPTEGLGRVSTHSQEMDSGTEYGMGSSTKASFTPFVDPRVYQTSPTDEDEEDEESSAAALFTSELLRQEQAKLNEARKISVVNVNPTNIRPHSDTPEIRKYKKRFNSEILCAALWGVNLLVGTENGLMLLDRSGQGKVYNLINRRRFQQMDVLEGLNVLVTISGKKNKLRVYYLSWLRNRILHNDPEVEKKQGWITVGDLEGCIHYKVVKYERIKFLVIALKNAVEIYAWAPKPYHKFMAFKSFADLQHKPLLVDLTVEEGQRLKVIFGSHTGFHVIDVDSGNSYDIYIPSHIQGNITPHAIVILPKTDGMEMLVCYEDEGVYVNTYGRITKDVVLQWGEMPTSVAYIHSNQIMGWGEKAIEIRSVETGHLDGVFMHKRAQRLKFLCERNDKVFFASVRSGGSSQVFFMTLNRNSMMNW
FES, sequence (P07332 whole entry): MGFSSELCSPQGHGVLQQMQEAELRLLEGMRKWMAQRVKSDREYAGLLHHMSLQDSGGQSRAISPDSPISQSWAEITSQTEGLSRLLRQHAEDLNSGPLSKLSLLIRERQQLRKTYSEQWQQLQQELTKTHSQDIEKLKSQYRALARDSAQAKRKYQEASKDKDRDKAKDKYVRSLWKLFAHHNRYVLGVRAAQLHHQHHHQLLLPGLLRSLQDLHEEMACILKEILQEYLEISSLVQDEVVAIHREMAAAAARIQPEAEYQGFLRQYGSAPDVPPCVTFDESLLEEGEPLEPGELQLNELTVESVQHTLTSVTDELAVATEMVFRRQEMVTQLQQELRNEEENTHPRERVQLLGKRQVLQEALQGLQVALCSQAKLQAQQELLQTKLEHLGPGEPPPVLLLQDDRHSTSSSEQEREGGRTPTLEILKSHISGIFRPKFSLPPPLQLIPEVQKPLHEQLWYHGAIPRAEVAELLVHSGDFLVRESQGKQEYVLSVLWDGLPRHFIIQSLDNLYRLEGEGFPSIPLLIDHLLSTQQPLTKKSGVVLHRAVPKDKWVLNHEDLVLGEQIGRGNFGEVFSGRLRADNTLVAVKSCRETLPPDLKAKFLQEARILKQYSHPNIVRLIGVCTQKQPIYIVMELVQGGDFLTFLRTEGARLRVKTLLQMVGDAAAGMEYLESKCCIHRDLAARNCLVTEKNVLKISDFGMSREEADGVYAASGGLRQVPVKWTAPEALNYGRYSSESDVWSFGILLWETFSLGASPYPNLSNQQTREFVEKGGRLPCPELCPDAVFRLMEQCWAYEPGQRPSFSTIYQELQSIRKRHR
CSK, sequence (P41240 whole entry): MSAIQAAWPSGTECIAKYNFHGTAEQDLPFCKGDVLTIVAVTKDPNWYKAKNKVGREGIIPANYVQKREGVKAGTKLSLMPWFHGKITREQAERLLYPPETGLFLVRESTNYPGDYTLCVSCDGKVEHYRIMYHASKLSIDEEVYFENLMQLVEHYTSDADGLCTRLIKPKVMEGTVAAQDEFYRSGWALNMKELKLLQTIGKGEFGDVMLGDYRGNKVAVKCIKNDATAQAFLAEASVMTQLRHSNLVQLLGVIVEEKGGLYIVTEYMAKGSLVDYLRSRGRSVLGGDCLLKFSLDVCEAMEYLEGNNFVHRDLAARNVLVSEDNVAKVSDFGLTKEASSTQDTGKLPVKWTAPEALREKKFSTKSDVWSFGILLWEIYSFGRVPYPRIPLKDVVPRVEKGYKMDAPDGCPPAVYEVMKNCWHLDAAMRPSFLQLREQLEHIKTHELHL
NIM1, sequence (Q8IY84 whole entry): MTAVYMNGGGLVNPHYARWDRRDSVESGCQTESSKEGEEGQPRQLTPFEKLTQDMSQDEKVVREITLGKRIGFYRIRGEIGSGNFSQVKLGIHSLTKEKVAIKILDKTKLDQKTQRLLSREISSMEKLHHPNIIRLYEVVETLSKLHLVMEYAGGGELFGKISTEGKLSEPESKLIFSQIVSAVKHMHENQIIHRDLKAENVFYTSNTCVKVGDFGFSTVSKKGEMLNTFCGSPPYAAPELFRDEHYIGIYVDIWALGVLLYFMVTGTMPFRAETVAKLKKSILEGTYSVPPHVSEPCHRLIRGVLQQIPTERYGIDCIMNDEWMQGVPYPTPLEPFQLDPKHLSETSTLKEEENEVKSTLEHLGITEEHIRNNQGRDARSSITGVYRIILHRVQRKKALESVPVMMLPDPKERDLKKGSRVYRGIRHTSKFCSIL

Q: For `CNc1c(-c2cnn([C@H]3CCN(C(C)=O)C[C@@H]3F)c2)cnc2[nH]cc(Cl)c12` [Compound 77, 1-((3S,4S)-4-(4-(3-chloro-4-(methylamino)-1H-pyrrolo[2,3-b]pyridin-5-yl)-1H-pyrazol-1-yl)-3-fluoropiperidin-1-yl)ethan-1-one], which remaining binding at 1 µM [1] is on record?
A: Its remaining binding at 1 µM is 69%.

Q: What about the remaining binding at 1 µM [2] of the same compound?
A: Its remaining binding at 1 µM is 95%.

Q: And the remaining binding at 1 µM [3]?
A: Its remaining binding at 1 µM is 96%.

Q: What about the remaining binding at 1 µM [4] of the same compound?
A: Its remaining binding at 1 µM is 29%.

Q: And the remaining binding at 1 µM [5]?
A: The remaining binding at 1 µM was 22%.

Q: What about the remaining binding at 1 µM [6] of the same compound?
A: The remaining binding at 1 µM was 35%.

Q: What does the source list for `O=C(c1ccc(-c2cnc3[nH]cc(Cl)c3c2NC2CCCC2)cc1)N1CCC(N2CCOCC2)CC1` [Compound 101, (4-(3-chloro-4-(cyclopentylamino)-1H-pyrrolo[2,3-b]pyridin-5-yl)phenyl)(4-morpholinopiperidin-1-yl)methanone]?
A: remaining binding at 1 µM [1]: 99%; remaining binding at 1 µM [2]: 72%; remaining binding at 1 µM [3]: 93%; remaining binding at 1 µM [4]: 89%; remaining binding at 1 µM [5]: 100%; remaining binding at 1 µM [6]: 100%

Q: Which remaining binding at 1 µM [1] does the source give for `CNc1c(-c2ccc(C(=O)N3CCC(N4CCOCC4)CC3)cc2)cnc2[nH]cc(Cl)c12` [Compound 96, (4-(3-chloro-4-(methylamino)-1H-pyrrolo[2,3-b]pyridin-5-yl)phenyl)(4-morpholinopiperidin-1-yl)methanone] here?
A: The remaining binding at 1 µM was 50%.

Q: What about the remaining binding at 1 µM [2] of the same compound?
A: Its remaining binding at 1 µM is 95%.

Q: What about the remaining binding at 1 µM [3] of the same compound?
A: The remaining binding at 1 µM was 73%.

Q: And the remaining binding at 1 µM [4]?
A: Its remaining binding at 1 µM is 14%.

Q: And the remaining binding at 1 µM [5]?
A: Its remaining binding at 1 µM is 44%.

Q: What about the remaining binding at 1 µM [6] of the same compound?
A: The remaining binding at 1 µM was 35%.
